Laboratory results from PubChem BioAssay (NCI).
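Method: 48-hour compound exposure of cells in 96-well plates, five concentrations, linear interpolation of endpoints. TGI: total growth inhibition.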

Tests used:
Assay in all cases: NCI tumour cell line growth inhibition, 48 h
[1] = system: COLO 205 colon
[2] = system: EKVX NSCLC
[3] = system: NCI/ADR-RES ovarian
[4] = system: SK-MEL-5 melanoma
[5] = system: SK-OV-3 ovarian
[6] = system: HCC-2998 colon
[7] = system: SF-295 CNS
[8] = system: MCF7 breast
[9] = system: SNB-19 CNS
[10] = system: K-562 leukemia
[11] = system: 786-0 renal
[12] = system: HCT-15 colon
[13] = system: MDA-MB-435
[14] = system: MDA-N
[15] = system: SK-MEL-28 melanoma
[16] = system: RXF 393 renal

| SMILES | TGI [1] [µM] | TGI [2] [µM] | TGI [3] [µM] | TGI [4] [µM] | TGI [5] [µM] | TGI [6] [µM] | TGI [7] [µM] | TGI [8] [µM] | TGI [9] [µM] | TGI [10] [µM] | TGI [11] [µM] | TGI [12] [µM] | TGI [13] [µM] | TGI [14] [µM] | TGI [15] [µM] | TGI [16] [µM] |
| --- | --- | --- | --- | --- | --- | --- | --- | --- | --- | --- | --- | --- | --- | --- | --- | --- |
| C=CC[C@H]1[C@H](O[Si](C)(C)C(C)(C)C)C=CC(=O)[C@@H]1CC(=O)OCC | 28.6 | 24.2 | 24.4 | 22.9 | 34.1 | 25.5 | 27.8 | 23.7 | 25.7 | 20.4 | 27.6 | 26.6 | 26.4 | 29.1 | 34.6 | 25.7 |
| Oc1ccc(Cn2c(-c3ccc(O)cc3)nc3ccccc32)cc1 | > 100 | > 100 | > 100 | > 100 | > 100 | > 100 | > 100 | > 100 | > 100 | > 100 | > 100 | > 100 | > 100 | > 100 | > 100 | > 100 |
| Cc1cc(C#N)c(Nc2ccccc2[N+](=O)[O-])s1 | > 100 | 97.2 | 53 | – | > 100 | 91.1 | > 100 | > 100 | > 100 | > 100 | > 100 | > 100 | 47.5 | 30.9 | > 100 | 47 |
| Cc1nc(Nc2nc3ccccc3[nH]2)[nH]c(=O)c1CCO | > 100 | > 100 | > 100 | > 100 | > 82.1 | > 100 | > 100 | > 100 | > 100 | > 100 | > 100 | > 100 | > 100 | > 100 | > 100 | > 84.3 |
| C[N+]12CCCCC1C(CN1C(=O)c3ccccc3C1=O)CCC2 (stereo unspecified) | > 100 | > 100 | > 100 | > 100 | > 100 | > 100 | > 100 | > 100 | > 100 | > 100 | > 100 | > 100 | > 100 | > 100 | > 100 | > 100 |
| Cc1ccc(-n2cc(-c3ccc(Cl)cc3)c(C#N)c2N)cc1 | 27.1 | 30.5 | 39.1 | 29.7 | 43.4 | 28.4 | 33.8 | 28.2 | 38.1 | 47.9 | 29.1 | 25 | 32.7 | 32.5 | 33.2 | 23.1 |
| CCOC(=O)c1ccc(Nc2cnc3ccc(C(F)(F)F)cc3n2)cc1 | 29.3 | 58.4 | 30.8 | 31.2 | > 100 | 26.7 | 50.6 | 67.1 | 84.7 | 53.7 | 26.8 | 35.5 | 61.8 | 44.6 | 43 | 25.8 |
| Nc1cc(N)c(N=Nc2cccc3c(S(=O)(=O)O)cccc23)cc1N=Nc1cc([N+](=O)[O-])ccc1O | > 100 | > 100 | 93.2 | 47.2 | > 100 | 79.9 | > 100 | > 100 | > 100 | > 100 | > 100 | 61 | > 100 | > 100 | – | > 100 |
| CC/C=C/C(/C=C/C[C@]1(CC)C[C@H](CC)[C@H](CC(=O)O)OO1)CC (stereo partly specified) | 3.86 | 3.77 | 4.79 | 10.1 | 19.2 | – | 5.02 | 6.62 | 12 | > 29.8 | 3.32 | 8.97 | 4.46 | 3.71 | 7.41 | 6.3 |
| CC1=C(C(=O)NC(C)(C)C)CC(C(=O)NC(C)(C)C)C(C)N1 (stereo unspecified) | > 100 | > 100 | > 100 | > 100 | > 100 | > 100 | > 100 | > 100 | > 100 | > 100 | > 100 | > 100 | > 100 | > 100 | – | > 100 |
| Oc1ccccc1-n1nc2ccc3nonc3c2n1 | > 100 | > 100 | > 100 | > 100 | > 100 | > 100 | > 100 | > 100 | > 100 | > 100 | > 100 | > 100 | > 100 | > 100 | > 100 | – |
| O=C(Nc1ccc(S(=O)(=O)Nc2ncccn2)cc1)c1c2ccccc2nc2ccccc12 | > 100 | > 100 | > 100 | > 100 | > 100 | > 100 | > 100 | > 100 | > 100 | > 100 | > 100 | > 100 | > 100 | > 100 | > 100 | – |
| CC(C)(CN)SCc1ccccc1 | > 100 | > 100 | > 100 | > 100 | > 100 | – | > 100 | > 100 | > 100 | > 100 | > 100 | > 100 | > 100 | > 100 | > 100 | > 100 |
| OC1(c2ccc3ccccc3c2)c2c(c3ccccc3c3ccccc23)C2=NCCN21 (stereo unspecified) | 4.17 | 36.3 | 5.22 | > 100 | 42.8 | – | 12.2 | 15.8 | > 58.2 | > 100 | 25.3 | > 39.4 | 5.1 | 4.28 | 6.09 | 7.68 |
| CCCN(CCC)C(=O)c1c(Cl)c2cccnc2n2c(C)cnc12 | > 100 | > 100 | > 100 | > 100 | > 100 | > 100 | > 100 | > 100 | > 100 | > 100 | > 100 | – | 85.3 | > 100 | > 100 | > 100 |
